Read-outs that look alike come from different tables or passages of the source.
Biological target: T1, mutant CFTR (Homo sapiens, UniProt P13569, DEL508-508)
T1 construct: expressed in transfected cells
Assay: Fluorescence (HS-YFP) assay for CFTR activity, corrector assay
Format: cell-based
Conditions: CFBE41o- and FRT cells with stable expression of mutant CFTR

T1 sequence (P13569 with tags, fused parts or gaps DEL508-508): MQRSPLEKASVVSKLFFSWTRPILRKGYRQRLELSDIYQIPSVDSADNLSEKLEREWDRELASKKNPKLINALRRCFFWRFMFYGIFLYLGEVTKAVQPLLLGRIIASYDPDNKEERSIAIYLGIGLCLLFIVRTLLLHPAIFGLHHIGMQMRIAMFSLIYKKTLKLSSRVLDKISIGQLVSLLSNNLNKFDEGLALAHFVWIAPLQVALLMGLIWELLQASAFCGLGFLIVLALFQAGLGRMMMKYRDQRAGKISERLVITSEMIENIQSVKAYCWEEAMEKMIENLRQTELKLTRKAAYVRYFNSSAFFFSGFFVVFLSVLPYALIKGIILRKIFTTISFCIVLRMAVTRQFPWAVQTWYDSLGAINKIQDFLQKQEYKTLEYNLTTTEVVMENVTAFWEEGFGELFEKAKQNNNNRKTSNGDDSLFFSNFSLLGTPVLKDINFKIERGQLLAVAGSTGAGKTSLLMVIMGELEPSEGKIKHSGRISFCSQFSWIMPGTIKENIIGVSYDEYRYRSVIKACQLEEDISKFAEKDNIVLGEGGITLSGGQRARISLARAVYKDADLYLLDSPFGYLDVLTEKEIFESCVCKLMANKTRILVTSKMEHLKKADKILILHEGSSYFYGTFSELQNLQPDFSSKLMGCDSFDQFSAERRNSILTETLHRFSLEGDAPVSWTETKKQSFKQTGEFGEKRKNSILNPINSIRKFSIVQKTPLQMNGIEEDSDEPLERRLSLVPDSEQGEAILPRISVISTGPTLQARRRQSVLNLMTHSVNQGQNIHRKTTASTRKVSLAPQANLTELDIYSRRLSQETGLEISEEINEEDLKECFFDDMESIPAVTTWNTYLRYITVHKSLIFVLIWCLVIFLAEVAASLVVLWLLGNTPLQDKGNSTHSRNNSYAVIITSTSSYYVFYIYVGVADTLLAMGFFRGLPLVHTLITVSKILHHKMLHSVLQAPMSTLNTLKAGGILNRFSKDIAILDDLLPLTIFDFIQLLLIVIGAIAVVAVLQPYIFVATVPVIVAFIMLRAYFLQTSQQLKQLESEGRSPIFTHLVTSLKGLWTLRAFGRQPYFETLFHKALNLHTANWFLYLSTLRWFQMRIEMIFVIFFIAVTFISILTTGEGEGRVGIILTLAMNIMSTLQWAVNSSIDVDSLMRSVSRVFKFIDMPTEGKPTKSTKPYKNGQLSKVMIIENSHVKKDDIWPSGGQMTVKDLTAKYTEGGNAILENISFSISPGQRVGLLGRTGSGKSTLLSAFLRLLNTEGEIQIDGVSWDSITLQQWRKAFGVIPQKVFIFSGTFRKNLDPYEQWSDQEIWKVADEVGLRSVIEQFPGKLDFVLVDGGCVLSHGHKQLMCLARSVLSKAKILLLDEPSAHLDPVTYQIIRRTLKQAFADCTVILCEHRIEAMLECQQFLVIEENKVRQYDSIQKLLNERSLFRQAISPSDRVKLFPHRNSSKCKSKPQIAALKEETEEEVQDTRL

In the case of `CN(C(=O)c1cccc(-n2nc(C(F)(F)F)c3c2C(Oc2ccc(C(=O)O)cc2)CCC3)c1)c1cnc(OC2CC2)nc1` (racemic) [Compound 313, 4-[[1-[3-[[2-(Cyclopropoxy)pyrimidin-5-yl]-methyl-carbamoyl]phenyl]-3-(trifluoromethyl)-4,5,6,7-tetrahydroindazol-7-yl]oxy]benzoic acid], the EC50 (read-out: activity (EC50)) is reported as 1000 to 2000 nM.

In the case of `CN(C(=O)c1cccc(-n2nc(C(F)(F)F)c3c2C(Oc2ccc(C(=O)O)cc2)CCC3)c1)c1ccc(OC(F)F)nc1` (racemic) [Compound 314, 4-[[1-[3-[[6-(Difluoromethoxy)-3-pyridyl]-methyl-carbamoyl]phenyl]-3-(trifluoromethyl)-4,5,6,7-tetrahydroindazol-7-yl]oxy]benzoic acid], the EC50 (read-out: activity (EC50)) is reported as less than 1000 nM.

`CN(C(=O)c1cccc(-n2nc(C(F)(F)F)c3c2C(Oc2ccc(C(=O)O)cc2)CCC3)c1)c1ccnc(C(F)(F)F)c1` (racemic) [Compound 315, 4-[[1-[3-[Methyl-[2-(trifluoromethyl)-4-pyridyl]carbamoyl]phenyl]-3-(trifluoromethyl)-4,5,6,7-tetrahydroindazol-7-yl]oxy]benzoic acid] was tested, and the EC50 (read-out: activity (EC50)) was 1000 to 2000 nM.

In the case of `COc1cc(N(C)C(=O)c2cccc(-n3nc(C(F)(F)F)c4c3C(Oc3ccc(C(=O)O)cc3)CCC4)c2)ccn1` (racemic) [Compound 316, 4-[[1-[3-[(2-methoxy-4-pyridyl)-methyl-carbamoyl]phenyl]-3-(trifluoromethyl)-4,5,6,7-tetrahydroindazol-7-yl]oxy]benzoic acid], the EC50 (read-out: activity (EC50)) is reported as 1000 to 2000 nM.

Work on `CC(C)Oc1cc(N(C)C(=O)c2cccc(-n3nc(C(F)(F)F)c4c3C(Oc3ccc(C(=O)O)cc3)CCC4)c2)ccn1` (racemic) [Compound 317, 4-[[1-[3-[(2-Isopropoxy-4-pyridyl)-methyl-carbamoyl]phenyl]-3-(trifluoromethyl)-4,5,6,7-tetrahydroindazol-7-yl]oxy]benzoic acid] yielded an EC50 (read-out: activity (EC50)) of 1000 to 2000 nM.

In the case of `CN(C(=O)c1cccc(-n2nc(C(F)(F)F)c3c2C(Oc2ccc(CC(=O)O)cc2)CCC3)c1)c1ccc2c(c1)OC(F)(F)O2` (racemic) [Compound 318, 2-[4-[[1-[3-[(2,2-Difluoro-1,3-benzodioxol-5-yl)-methyl-carbamoyl]phenyl]-3-(trifluoromethyl)-4,5,6,7-tetrahydroindazol-7-yl]oxy]phenyl]acetic acid], the EC50 (read-out: activity (EC50)) is reported as less than 1000 nM.

`CN(C(=O)c1cccc(-n2nc(C(F)(F)F)c3c2C[C@H]2CC[C@@H]3N2)c1)c1ccc2c(c1)OCO2` (single isomer, unassigned) [Compound 048, (4R,7S)- or (4S,7R)—N-(Benzo[d][1,3]dioxol-5-yl)-N-methyl-3-(3-(trifluoromethyl)-5,6,7,8-tetrahydro-4,7-epiminocyclohepta [c]pyrazol-1(4H)-yl)benzamide] showed an EC50 (read-out: activity (EC50)) of less than 1000 nM.

Compound `CN(C(=O)c1cccc(-n2nc(C(F)(F)F)c3c2C[C@@H]2CC[C@H]3N2)c1)c1ccc2c(c1)OCO2` (single isomer, unassigned) [Compound 049, (4S,7R)- or (4R,7S)—N-(Benzo[d][1,3]dioxol-5-yl)-N-methyl-3-(3-(trifluoromethyl)-5,6,7,8-tetrahydro-4,7-epiminocyclohepta [c]pyrazol-1(4H)-yl)benzamide] has an EC50 (activity (EC50)) of 1000 to 2000 nM.

`CN(C(=O)c1cccc(-n2nc(C(F)(F)F)c3c2C[C@H]2CC[C@@H]3N2C)c1)c1ccc2c(c1)OCO2` (single isomer, unassigned) [Compound 050, (4R,7S)- or (4S,7R)—N-(Benzo[d][1,3]dioxol-5-yl)-N-methyl-3-(9-methyl-3-(trifluoromethyl)-5,6,7,8-tetrahydro-4,7-epiminocyclohepta[c]pyrazol-1(4H)-yl)benzamide] gave an EC50 (read-out: activity (EC50)) of less than 1000 nM.

In the case of `CN(C(=O)c1cccc(-n2nc(C(F)(F)F)c3c2C[C@@H]2CC[C@H]3N2C)c1)c1ccc2c(c1)OCO2` (single isomer, unassigned) [Compound 051, (4S,7R)- or (4R,7S)—N-(Benzo[d][1,3]dioxol-5-yl)-N-methyl-3-(9-methyl-3-(trifluoromethyl)-5,6,7,8-tetrahydro-4,7-epiminocyclohepta[c]pyrazol-1(4H)-yl)benzamide], the EC50 (activity (EC50)) is reported as 1000 to 2000 nM.

Work on `CN(C(=O)c1cccc(-n2nc(C(F)(F)F)c3c2C[C@H]2CC[C@@H]3N2C(=O)OC(C)(C)C)c1)c1ccc2c(c1)OCO2` (single isomer, unassigned) [Compound 052, (4R,7S)- or (4S,7R)-tert-Butyl-1-(3-(benzo[d][1,3]dioxol-5-yl(methyl)carbamoyl)phenyl)-3-(trifluoromethyl)-1,4,5,6,7,8-hexahydro-4,7-epiminocyclohepta[c]pyrazole-9-carboxylate] yielded an EC50 (read-out: activity (EC50)) of less than 1000 nM.

Work on `CN(C(=O)c1cccc(-n2nc(C(F)(F)F)c3c2C[C@@H]2CC[C@H]3N2C(=O)OC(C)(C)C)c1)c1ccc2c(c1)OCO2` (single isomer, unassigned) [Compound 053, (4S,7R)- or (4R,7S)-tert-Butyl-1-(3-(benzo[d][1,3]dioxol-5-yl(methyl)carbamoyl)phenyl)-3-(trifluoromethyl)-1,4,5,6,7,8-hexahydro-4,7-epiminocyclohepta[c]pyrazole-9-carboxylate] yielded an EC50 (read-out: activity (EC50)) of less than 1000 nM.

In the case of `CN(C(=O)c1cccc(-n2nc(C(F)(F)F)c3c2C[C@H]2CC[C@@H]3N2C(=O)C(C)(C)C)c1)c1ccc2c(c1)OCO2` (single isomer, unassigned) [Compound 087, (4R,7S)- or (4S,7R)—N-(Benzo[d][1,3]dioxol-5-yl)-N-methyl-3-[(9-pivaloyl-3-(trifluoromethyl)-5,6,7,8-tetrahydro-4,7-epiminocyclohepta[c]pyrazol-1(4H)-yl)]benzamide], the EC50 (read-out: activity (EC50)) is reported as less than 1000 nM.

In the case of `CN(C(=O)c1cccc(-n2nc(C(F)(F)F)c3c2C[C@@H]2CC[C@H]3N2C(=O)C(C)(C)C)c1)c1ccc2c(c1)OCO2` (single isomer, unassigned) [Compound 088, (4R,7S)- or (4S,7R)—N-(Benzo[d][1,3]dioxol-5-yl)-N-methyl-3-[(9-pivaloyl-3-(trifluoromethyl)-5,6,7,8-tetrahydro-4,7-epiminocyclohepta[c]pyrazol-1(4H)-yl)]benzamide], the EC50 (read-out: activity (EC50)) is reported as less than 1000 nM.

With `Cc1noc(C)c1S(=O)(=O)N1[C@@H]2CC[C@H]1c1c(C(F)(F)F)nn(-c3cccc(C(=O)N(C)c4ccc5c(c4)OCO5)c3)c1C2` (single isomer, unassigned) [Compound 128, (4S,7R)- or (4R,7S)—N-(Benzo[d][1,3]dioxol-5-yl)-3-(9-((3,5-dimethylisoxazol-4-yl)sulfonyl)-3-(trifluoromethyl)-5,6,7,8-tetrahydro-4,7-epiminocyclohepta[c]pyrazol-1(4H)-yl)-N-methylbenzamide] the EC50 (read-out: activity (EC50)) was less than 1000 nM.

With `Cc1noc(C)c1S(=O)(=O)N1[C@H]2CC[C@@H]1c1c(C(F)(F)F)nn(-c3cccc(C(=O)N(C)c4ccc5c(c4)OCO5)c3)c1C2` (single isomer, unassigned) [Compound 129, (4R,7S)- or (4S,7R)—N-(Benzo[d][1,3]dioxol-5-yl)-3-(9-((3,5-dimethylisoxazol-4-yl)sulfonyl)-3-(trifluoromethyl)-5,6,7,8-tetrahydro-4,7-epiminocyclohepta[c]pyrazol-1(4H)-yl)-N-methylbenzamide] the EC50 (read-out: activity (EC50)) was less than 1000 nM.

`Cc1n[nH]c(C)c1S(=O)(=O)N1[C@H]2CC[C@@H]1c1c(C(F)(F)F)nn(-c3cccc(C(=O)N(C)c4ccc5c(c4)OCO5)c3)c1C2` (single isomer, unassigned) [Compound 130, (4R,7S)- or (4S,7R)—N-(Benzo[d][1,3]dioxol-5-yl)-3-(9-((3,5-dimethyl-1H-pyrazol-4-yl)sulfonyl)-3-(trifluoromethyl)-5,6,7,8-tetrahydro-4,7-epiminocyclohepta[c]pyrazol-1(4H)-yl)-N-methylbenzamide] gave an EC50 (read-out: activity (EC50)) of less than 1000 nM.

In the case of `CN(C(=O)c1cccc(-n2nc(C(F)(F)F)c3c2C[C@@H]2CC[C@H]3N2C2CCC2)c1)c1ccc2c(c1)OCO2` (single isomer, unassigned) [Compound 131, (4R,7S)- or (4S,7R)—N-(Benzo[d][1,3]dioxol-5-yl)-3-(9-cyclobutyl-3-(trifluoromethyl)-5,6,7,8-tetrahydro-4,7-epiminocyclohepta[c]pyrazol-1(4H)-yl)-N-methylbenzamide], the EC50 (read-out: activity (EC50)) is reported as less than 1000 nM.

In the case of `CN(C(=O)c1cccc(-n2nc(C(F)(F)F)c3c2C(Oc2ccc(C(=O)O)cc2)CCC3)c1)c1ccc2c(c1)OC(F)(F)O2` (single isomer, unassigned) [Compound 150, (R) or (S)-4-[[1-[3-[(2,2-Difluoro-1,3-benzodioxol-5-yl)-methyl-carbamoyl]phenyl]-3-(trifluoromethyl)-4,5,6,7-tetrahydroindazol-7-yl]oxy]benzoic acid], the EC50 (read-out: activity (EC50)) is reported as less than 1000 nM.

With `CN(C(=O)c1cccc(-n2nc(C(F)(F)F)c3c2C(Oc2ccc(C(=O)O)cc2)CCC3)c1)c1ccc2c(c1)OC(F)(F)O2` (single isomer, unassigned) [Compound 151, (S) or (R)-4-[[1-[3-[(2,2-Difluoro-1,3-benzodioxol-5-yl)-methyl-carbamoyl]phenyl]-3-(trifluoromethyl)-4,5,6,7-tetrahydroindazol-7-yl]oxy]benzoic acid] the EC50 (read-out: activity (EC50)) was less than 1000 nM.

With `CN(C(=O)c1cccc(-n2nc(C(F)(F)F)c3c2C(Oc2ccc(C(=O)O)nc2)CCC3)c1)c1ccc2c(c1)OC(F)(F)O2` (single isomer, unassigned) [Compound 185, (S) or (R)-5-[[-1-[3-[(2,2-Difluoro-1,3-benzodioxol-5-yl)-methyl-carbamoyl]phenyl]-3-(trifluoromethyl)-4,5,6,7-tetrahydroindazol-7-yl]oxy]pyridine-2-carboxylic acid] the EC50 (read-out: activity (EC50)) was less than 1000 nM.

`CN(C(=O)c1cccc(-n2nc(C(F)(F)F)c3c2C(Oc2ccc(C(=O)O)nc2)CCC3)c1)c1ccc2c(c1)OC(F)(F)O2` (single isomer, unassigned) [Compound 186, (R) or (S)-5-[[1-[3-[(2,2-Difluoro-1,3-benzodioxol-5-yl)-methyl-carbamoyl]phenyl]-3-(trifluoromethyl)-4,5,6,7-tetrahydroindazol-7-yl]oxy]pyridine-2-carboxylic acid] gave an EC50 (read-out: activity (EC50)) of less than 1000 nM.

Source: patent publication US10968225B2, “Compounds and compositions for the treatment of cystic fibrosis” (Fondazione Istituto Italiano Di Tecnologia, priority 2017, dated 2021)
